The test system of test [1] is sCTLA-4 and AIMp1 secretion from human DC. The test can be described thus: sCTLA-4 and AIMp1 western blots of human DC culture supernatants with TLR agonistic stimuli. The format is cell-based. The settings on record: 1 μg/ml, absence of antigenic loading. In general terms: In western blotting, separated proteins are transferred to a membrane and probed.
The subject of test [2] is AIMp1 and sCTLA-4 secretion from mouse DC. As to the kind of experiment: AIMp1 / sCTLA-4 Western blot of mouse DC culture supernatants. In kind it is cell-based. The settings on record: mouse DC (not shown), 1 μg/ml, absence of antigenic loading. From the text: (§1) FIGS. 1A-F: Concurrent loading of antigenically related MHC Class I and II determinants promote TH1-polarization of mouse DC. […] This effect was abrogated by siRNA knockdown of AIMp1. Antigens were derived from the RAW264.7 cell line. Heterologous Class II antigens were derived from the 4T1 breast cancer cell line. Y-axis: fold change in IL-12p70 secretion from unloaded (UL) DC. […] Top panel: AIMp1 release following homologous loading with RAW264.7 antigenic determinants. Heterologous lysate derived from 4T1. Bottom panel: AIMp1 release following homologous loading with primary SV antigenic determinants. Heterologous lysate derived from primary prostate. […] Shown: sCTLA-4 release following homologous loading with RAW264.7 antigenic determinants. Heterologous lysate derived from 4T1. […] Data shown are indicative of typical AIMp1 knockdown of >70%. […] This effect was abrogated by treatment of homologously-loaded DC with AIMp1 siRNA. Heterologous lysate was primary prostate. Y-axis: fold change in total cell count in comparison to unloaded (UL) DC. […]
Quantitation of Western Blot Images—Western blot chemiluminescent signal was detected using a ChemiDoc XRS digital imaging system running Image Lab software Version 2.0.1 (Bio-Rad Laboratories, Hercules, Calif.). All Western blots were quantitated by densitometry of Ponceau S (Sigma-Aldrich) stained membranes. […]

In the next test the test system is CD8^+ T-cells. As to the kind of experiment: In vitro co-culture of loaded mouse DC with splenocytes, T-cell populations. The format is cell-based. The conditions noted are these: loaded H2-DM^−/− DC with wild type syngeneic splenocytes.
Source text: as §1, with “prostate.” for “prostate. Y-axis: fold change in total cell count in comparison to unloaded (UL) DC.”
FIGS. 3A-G: AIMp1/sCTLA-4 modulation is dependent upon binding of homologous class I and II peptide to MHC. […] (B) Densitometry quantitation of AIMp1/sCTLA-4 ratios of the data depicted in (a) over three independent experiments. […] (Glycine Pair: Class I=SEQ ID NO: 3, Class II=SEQ ID NO: 2; Methionine Pair: Class I=SEQ ID NO: 8, Class II=SEQ ID NO: 9) (F) Densitometric quantitation of the data presented in (e). […]

A further test has as its system H2-DM^−/− DC. The test can be described thus: AIMp1 / sCTLA-4 secretion from H2-DM-/- DC loaded with class I peptide. The format is cell-based, mouse. From the text: FIGS. 3A-G: AIMp1/sCTLA-4 modulation is dependent upon binding of homologous class I and II peptide to MHC. (A) sCTLA-4 (right) and AIMp1 (left) western blots of wild type (top) and H2-DM^−/− (bottom) murine DC culture supernatants following single, homologous, or heterologous loading with SV mRNA and lysate. Representative experiment shown. (B) Densitometry quantitation of AIMp1/sCTLA-4 ratios of the data depicted in (a) over three independent experiments. Top panel: wild type DC. Bottom panel: H2-DM^−/− DC. […] (Glycine Pair: Class I=SEQ ID NO: 3, Class II=SEQ ID NO: 2; Methionine Pair: Class I=SEQ ID NO: 8, Class II=SEQ ID NO: 9) (F) Densitometric quantitation of the data presented in (e). […]
Preparation of Vaccine Materials, Loading of DC, and In vitro CoCulture—Seminal vesicle (SV) and prostate were harvested from 10 week old male mice and immediately frozen at −80° C. […] To generate mRNA, total RNA was isolated from homogenized tissue using Trizol reagent (Life Technologies, Carlsbad, Calif.) according to the manufacturer's instructions, and mRNA was isolated from total RNA using an Oligotex mRNA Maxi Kit (Qiagen, Valencia, Calif.) also according to the manufacturer's instructions. mRNA was quantitated with a Nanodrop spectrophotometer (Thermo Scientific) and integrity was verified by gel electrophoresis. […]

As to flagellin, the “sCTLA-4 or AIMp1 secretion with TLR agonist” value is on record as “Neither poly(I:C), LPS, flagellin, nor CpG-ODN altered sCTLA-4 or AIMp1 secretion” in test [1] and “Neither poly(I:C), LPS, flagellin, nor CpG-ODN altered sCTLA-4 or AIMp1 secretion” in test [2].
MRMATPLLM [H-2D^b CLIP]: in the test with CD8^+ T-cells, the “CD8^+CD25^+ T cells after coculture” value is “increase in CD8^+CD25^+ T cells”. The AIMp1 release entry in the test on H2-DM^−/− DC (SIINFEKL as control) is listed as “Substantial AIMp1 release was observed in a dose-dependent fashion”. Also, in the test on H2-DM^−/− DC (dose-dependent), the sCTLA-4 secretion entry is reported as “diminution of sCTLA-4 secretion”.
As for “polyinosine-polycytidylic acid [poly(I:C)]”, the “sCTLA-4 or AIMp1 secretion with TLR agonist” value in test [1] was “Neither poly(I:C), LPS, flagellin, nor CpG-ODN altered sCTLA-4 or AIMp1 secretion”; in test [2], “Neither poly(I:C), LPS, flagellin, nor CpG-ODN altered sCTLA-4 or AIMp1 secretion”.

(Values after patent US20220213440A1, “DENDRITIC CELL IMMUNOTHERAPY” (BAYLOR COLLEGE OF MEDICINE, priority 2015, published 2022).)
